Results published in patent US20140271831A1, “RACECADOTRIL LIQUID COMPOSITIONS” (McNeil-PPC, Inc., priority 2013, published 2014).

Experiment: Racecadotril and degradation products over time in Acetate and Citrate at pH 3.6, 4.0, 4.5 (untitled table)
Assay type: physicochemical
Set-up: key to Impurity C / Impurity G: % peak area relative to the Racecadotril peak
Conditions: for RAC: in % (unit assumed)
Procedure: • 1. Pipet 1 mL of Racecadotril solution into a 100 mL volumetric flask (V.F.) • 2. Dilute to volume with the same buffer used in the solution preparation. • 3. […] Parameters may be modified to optimize chromatography. • The assay of Racecadotril is determined by using the external standard injected. The degradation products levels are determined by % peak area relative to the Racecadotril peak. [table] [table] Mobil Phase A: Phosphate buffer, pH 2.5 (Buffer prep: dissolve 1 g of potassium dihydrogen phosphate in water, adjust to pH 2.5 with phosphoric acid, dilute to 1000 mL with water) Mobil Phase B: 100% Acetonitrile

Benz Alcohol (Acetate, pH 3.6, 1 week): 0.69%
Impurity C (Acetate, pH 3.6, 1 week): 0.93
Impurity G (Acetate, pH 3.6, 1 week): 1.17
Thiorphan (Acetate, pH 3.6, 1 week): 0%
RAC (Acetate, pH 3.6, 1 week): 97.21
Benz Alcohol (Acetate, pH 3.6, 2 week): 1.4%
Impurity C (Acetate, pH 3.6, 2 week): 1.87
Impurity G (Acetate, pH 3.6, 2 week): 1.74
Thiorphan (Acetate, pH 3.6, 2 week): 0.11%
RAC (Acetate, pH 3.6, 2 week): 94.88
Benz Alcohol (Acetate, pH 3.6, 3 week): 2.13%
Impurity C (Acetate, pH 3.6, 3 week): 2.78
Impurity G (Acetate, pH 3.6, 3 week): 1.93
Thiorphan (Acetate, pH 3.6, 3 week): 0.14%
RAC (Acetate, pH 3.6, 3 week): 93.01
Benz Alcohol (Acetate, pH 3.6, 4 week): 2.84%
Impurity C (Acetate, pH 3.6, 4 week): 3.56
Impurity G (Acetate, pH 3.6, 4 week): 3
Thiorphan (Acetate, pH 3.6, 4 week): 0.3%
RAC (Acetate, pH 3.6, 4 week): 90.15
Benz Alcohol (Acetate, pH 3.6, 6 week): 4.33%
Impurity C (Acetate, pH 3.6, 6 week): 5.17
Impurity G (Acetate, pH 3.6, 6 week): 3.82
Thiorphan (Acetate, pH 3.6, 6 week): 0.57%
RAC (Acetate, pH 3.6, 6 week): 85.75
Benz Alcohol (Acetate, pH 3.6, 8 week): 5.78%
Impurity C (Acetate, pH 3.6, 8 week): 6.2
Impurity G (Acetate, pH 3.6, 8 week): 5.28
Thiorphan (Acetate, pH 3.6, 8 week): 1%
RAC (Acetate, pH 3.6, 8 week): 80.68
Benz Alcohol (Acetate, pH 3.6, Initial): 0%
Impurity C (Acetate, pH 3.6, Initial): 0
Impurity G (Acetate, pH 3.6, Initial): 0.07
Thiorphan (Acetate, pH 3.6, Initial): 0%
RAC (Acetate, pH 3.6, Initial): 99.93
Benz Alcohol (Acetate, pH 4.0, 1 week): 0.7%
Impurity C (Acetate, pH 4.0, 1 week): 0.93
Impurity G (Acetate, pH 4.0, 1 week): 1.36
Thiorphan (Acetate, pH 4.0, 1 week): 0%
RAC (Acetate, pH 4.0, 1 week): 97.01
Benz Alcohol (Acetate, pH 4.0, 2 week): 1.39%
Impurity C (Acetate, pH 4.0, 2 week): 1.82
Impurity G (Acetate, pH 4.0, 2 week): 1.7
Thiorphan (Acetate, pH 4.0, 2 week): 0.7%
RAC (Acetate, pH 4.0, 2 week): 95.02
Benz Alcohol (Acetate, pH 4.0, 3 week): 2.09%
Impurity C (Acetate, pH 4.0, 3 week): 2.83
Impurity G (Acetate, pH 4.0, 3 week): 2.66
Thiorphan (Acetate, pH 4.0, 3 week): 0.19%
RAC (Acetate, pH 4.0, 3 week): 92.23
Benz Alcohol (Acetate, pH 4.0, 4 week): 2.84%
Impurity C (Acetate, pH 4.0, 4 week): 3.52
Impurity G (Acetate, pH 4.0, 4 week): 3.62
Thiorphan (Acetate, pH 4.0, 4 week): 0.38%
RAC (Acetate, pH 4.0, 4 week): 89.5
Benz Alcohol (Acetate, pH 4.0, 6 week): 4.28%
Impurity C (Acetate, pH 4.0, 6 week): 5.16
Impurity G (Acetate, pH 4.0, 6 week): 5.67
Thiorphan (Acetate, pH 4.0, 6 week): 0.71%
RAC (Acetate, pH 4.0, 6 week): 83.98
Benz Alcohol (Acetate, pH 4.0, 8 week): 5.37%
Impurity C (Acetate, pH 4.0, 8 week): 6.2
Impurity G (Acetate, pH 4.0, 8 week): 8.46
Thiorphan (Acetate, pH 4.0, 8 week): 1.19%
RAC (Acetate, pH 4.0, 8 week): 78.53
Benz Alcohol (Acetate, pH 4.0, Initial): 0%
Impurity C (Acetate, pH 4.0, Initial): 0
Impurity G (Acetate, pH 4.0, Initial): 0
Thiorphan (Acetate, pH 4.0, Initial): 0%
RAC (Acetate, pH 4.0, Initial): 100
Benz Alcohol (Acetate, pH 4.5, 1 week): 0.022%
Impurity C (Acetate, pH 4.5, 1 week): 0.21
Impurity G (Acetate, pH 4.5, 1 week): 3.17
Thiorphan (Acetate, pH 4.5, 1 week): 0.02%
RAC (Acetate, pH 4.5, 1 week): 96.33
Benz Alcohol (Acetate, pH 4.5, 2 week): 0.4%
Impurity C (Acetate, pH 4.5, 2 week): 0.4
Impurity G (Acetate, pH 4.5, 2 week): 6.5
Thiorphan (Acetate, pH 4.5, 2 week): 0.04%
RAC (Acetate, pH 4.5, 2 week): 92.61
Benz Alcohol (Acetate, pH 4.5, 3 week): 0.59%
Impurity C (Acetate, pH 4.5, 3 week): 0.58
Impurity G (Acetate, pH 4.5, 3 week): 9.43
Thiorphan (Acetate, pH 4.5, 3 week): 0.06%
RAC (Acetate, pH 4.5, 3 week): 89.29
Benz Alcohol (Acetate, pH 4.5, 4 week): 0.79%
Impurity C (Acetate, pH 4.5, 4 week): 0.72
Impurity G (Acetate, pH 4.5, 4 week): 11.84
Thiorphan (Acetate, pH 4.5, 4 week): 0.11%
RAC (Acetate, pH 4.5, 4 week): 86.5
Benz Alcohol (Acetate, pH 4.5, 6 week): 1.14%
Impurity C (Acetate, pH 4.5, 6 week): 1.04
Impurity G (Acetate, pH 4.5, 6 week): 17.32
Thiorphan (Acetate, pH 4.5, 6 week): 0.2%
RAC (Acetate, pH 4.5, 6 week): 80.25
Benz Alcohol (Acetate, pH 4.5, 8 week): 1.51%
Impurity C (Acetate, pH 4.5, 8 week): 1.25
Impurity G (Acetate, pH 4.5, 8 week): 21.73
Thiorphan (Acetate, pH 4.5, 8 week): 0.36%
RAC (Acetate, pH 4.5, 8 week): 75.06
Benz Alcohol (Acetate, pH 4.5, Initial): 0.02%
Impurity C (Acetate, pH 4.5, Initial): 0.02
Impurity G (Acetate, pH 4.5, Initial): 0.21
Thiorphan (Acetate, pH 4.5, Initial): 0.01%
RAC (Acetate, pH 4.5, Initial): 99.68
Benz Alcohol (Citrate, pH 3.6, 1 week): 0.79%
Impurity C (Citrate, pH 3.6, 1 week): 0.98
Impurity G (Citrate, pH 3.6, 1 week): 1.78
Thiorphan (Citrate, pH 3.6, 1 week): 0%
RAC (Citrate, pH 3.6, 1 week): 96.45
Benz Alcohol (Citrate, pH 3.6, 2 week): 1.72%
Impurity C (Citrate, pH 3.6, 2 week): 2.3
Impurity G (Citrate, pH 3.6, 2 week): 3.81
Thiorphan (Citrate, pH 3.6, 2 week): 0.13%
RAC (Citrate, pH 3.6, 2 week): 92.01
Benz Alcohol (Citrate, pH 3.6, 3 week): 2.59%
Impurity C (Citrate, pH 3.6, 3 week): 3.36
Impurity G (Citrate, pH 3.6, 3 week): 5.52
Thiorphan (Citrate, pH 3.6, 3 week): 0.31%
RAC (Citrate, pH 3.6, 3 week): 88.22
Benz Alcohol (Citrate, pH 3.6, 4 week): 3.38%
Impurity C (Citrate, pH 3.6, 4 week): 4.23
Impurity G (Citrate, pH 3.6, 4 week): 7.38
Thiorphan (Citrate, pH 3.6, 4 week): 0.47%
RAC (Citrate, pH 3.6, 4 week): 84.51
Benz Alcohol (Citrate, pH 3.6, 6 week): 5.09%
Impurity C (Citrate, pH 3.6, 6 week): 6.13
Impurity G (Citrate, pH 3.6, 6 week): 9.72
Thiorphan (Citrate, pH 3.6, 6 week): 1.11%
RAC (Citrate, pH 3.6, 6 week): 77.91
Benz Alcohol (Citrate, pH 3.6, 8 week): 6.64%
Impurity C (Citrate, pH 3.6, 8 week): 7.54
Impurity G (Citrate, pH 3.6, 8 week): 12.47
Thiorphan (Citrate, pH 3.6, 8 week): 1.8%
RAC (Citrate, pH 3.6, 8 week): 71.51
Benz Alcohol (Citrate, pH 3.6, Initial): 0%
Impurity C (Citrate, pH 3.6, Initial): 0
Impurity G (Citrate, pH 3.6, Initial): 0.09
Thiorphan (Citrate, pH 3.6, Initial): 0%
RAC (Citrate, pH 3.6, Initial): 99.91
Benz Alcohol (Citrate, pH 4.0, 1 week): 0.89%
Impurity C (Citrate, pH 4.0, 1 week): 1.23
Impurity G (Citrate, pH 4.0, 1 week): 1.95
Thiorphan (Citrate, pH 4.0, 1 week): 0%
RAC (Citrate, pH 4.0, 1 week): 95.93
Benz Alcohol (Citrate, pH 4.0, 2 week): 1.41%
Impurity C (Citrate, pH 4.0, 2 week): 1.82
Impurity G (Citrate, pH 4.0, 2 week): 3.47
Thiorphan (Citrate, pH 4.0, 2 week): 0.11%
RAC (Citrate, pH 4.0, 2 week): 93.19
Benz Alcohol (Citrate, pH 4.0, 3 week): 2.36%
Impurity C (Citrate, pH 4.0, 3 week): 2.82
Impurity G (Citrate, pH 4.0, 3 week): 4.79
Thiorphan (Citrate, pH 4.0, 3 week): 0.21%
RAC (Citrate, pH 4.0, 3 week): 89.91
Benz Alcohol (Citrate, pH 4.0, 4 week): 2.79%
Impurity C (Citrate, pH 4.0, 4 week): 3.43
Impurity G (Citrate, pH 4.0, 4 week): 6.57
Thiorphan (Citrate, pH 4.0, 4 week): 0.4%
RAC (Citrate, pH 4.0, 4 week): 86.78
Benz Alcohol (Citrate, pH 4.0, 6 week): 4.19%
Impurity C (Citrate, pH 4.0, 6 week): 4.98
Impurity G (Citrate, pH 4.0, 6 week): 9.24
Thiorphan (Citrate, pH 4.0, 6 week): 0.85%
RAC (Citrate, pH 4.0, 6 week): 80.7
Benz Alcohol (Citrate, pH 4.0, 8 week): 5.54%
Impurity C (Citrate, pH 4.0, 8 week): 6.22
Impurity G (Citrate, pH 4.0, 8 week): 11.26
Thiorphan (Citrate, pH 4.0, 8 week): 1.42%
RAC (Citrate, pH 4.0, 8 week): 75.6
Benz Alcohol (Citrate, pH 4.0, Initial): 0%
Impurity C (Citrate, pH 4.0, Initial): 0
Impurity G (Citrate, pH 4.0, Initial): 0
Thiorphan (Citrate, pH 4.0, Initial): 0%
RAC (Citrate, pH 4.0, Initial): 100
Benz Alcohol (Citrate, pH 4.5, 1 week): 0.22%
Impurity C (Citrate, pH 4.5, 1 week): 0.18
Impurity G (Citrate, pH 4.5, 1 week): 3.15
Thiorphan (Citrate, pH 4.5, 1 week): 0.01%
RAC (Citrate, pH 4.5, 1 week): 96.44
Benz Alcohol (Citrate, pH 4.5, 2 week): 0.4%
Impurity C (Citrate, pH 4.5, 2 week): 0.36
Impurity G (Citrate, pH 4.5, 2 week): 6.04
Thiorphan (Citrate, pH 4.5, 2 week): 0.03%
RAC (Citrate, pH 4.5, 2 week): 93.19
Benz Alcohol (Citrate, pH 4.5, 3 week): 0.59%
Impurity C (Citrate, pH 4.5, 3 week): 0.52
Impurity G (Citrate, pH 4.5, 3 week): 8.66
Thiorphan (Citrate, pH 4.5, 3 week): 0.06%
RAC (Citrate, pH 4.5, 3 week): 90.2
Benz Alcohol (Citrate, pH 4.5, 4 week): 0.79%
Impurity C (Citrate, pH 4.5, 4 week): 0.62
Impurity G (Citrate, pH 4.5, 4 week): 11.16
Thiorphan (Citrate, pH 4.5, 4 week): 0.1%
RAC (Citrate, pH 4.5, 4 week): 87.41
Benz Alcohol (Citrate, pH 4.5, 6 week): 1.14%
Impurity C (Citrate, pH 4.5, 6 week): 0.9
Impurity G (Citrate, pH 4.5, 6 week): 15.86
Thiorphan (Citrate, pH 4.5, 6 week): 0.17%
RAC (Citrate, pH 4.5, 6 week): 82.05
Benz Alcohol (Citrate, pH 4.5, 8 week): 1.51%
Impurity C (Citrate, pH 4.5, 8 week): 1.11
Impurity G (Citrate, pH 4.5, 8 week): 19.95
Thiorphan (Citrate, pH 4.5, 8 week): 0.29%
RAC (Citrate, pH 4.5, 8 week): 77.34
Benz Alcohol (Citrate, pH 4.5, Initial): 0.02%
Impurity C (Citrate, pH 4.5, Initial): 0.01
Impurity G (Citrate, pH 4.5, Initial): 0.19
Thiorphan (Citrate, pH 4.5, Initial): 0.01%
RAC (Citrate, pH 4.5, Initial): 99.71
SMILES: CC(=O)SCC(Cc1ccccc1)C(=O)NCC(=O)OCc1ccccc1 (racemic) [Racecadotril]
